The record followed here is patent US11512042B2, “Enamine compounds for absorbance of electromagnetic energy” (Commonwealth Scientific and Industrial Research Organisation, priority 2015, dated 2022).

Common to all, as to type: physicochemical
The nature of data set [1]: UV absorbance spectrum in solution (λmax, λcrit, extinction coefficients). The conditions noted are these: for λcrit: critical wavelength; for E (1%, 1 cm): mass extinction coefficient; for ε: molar extinction coefficient, in M-1 cm-1 (unit assumed). Put shortly:
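Spectra taken on 0.001% solutions in methanol, 10 mm path. Breakthrough is the wavelength where transmittance rises above 1%; steepness is the nm span over which transmittance goes from 1 to 80%.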

A short description of data set [2]: % transmission spectrum of 0.1% solution (breakthrough, steepness). The conditions noted are these: for Steepness: distance in nm over which transmittance increases from 1 to 80%; for Breakthrough (1% T at 0.1%): value in nm where transmittance increases beyond 1%, 0.1% solution. Put shortly: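 Transmission was recorded for 0.1% methanol solutions in a 2 mm cuvette. Breakthrough is the wavelength (nm) at which transmittance exceeds 1%; steepness is the nm span over which transmittance rises from 1 to 80%. Some values are averages of multiple measurements.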

Data set [3] can be described thus: Photostability protocol: thin film irradiated with xenon arc lamp. The note with it: 1 hour xenon arc lamp, ratio of absorbance at λmax irradiated vs unirradiated, ^a = average of multiple measurements. On the procedure: 1 mL of a 3% solution of the test compound (30 mg of test compound in 1 mL solvent) was prepared in a solvent mix made up of 50% EtOH and 25% capric/caprylic triglyceride and 25% C12-C15 alkyl benzoate. 50 μL of this solution (containing 1.5 mg of test compound) was added carefully to the centre of a glass microscope slide and the volatile components left to evaporate in the dark for at least 3 hours to give a liquid film. The prepared films were then exposed for 1 hour to an Eimac 150 W xenon arc lamp filtered through Pyrex (15 Amp supply current, samples 19 cm from the lamp) previously allowed to warm up for 15 minutes prior to sample exposure. The irradiation was performed in a fume cupboard where the air flow was sufficient to keep sample T<30° C. One hour's exposure represented a calculated radiation dose (using meter) of approximately 100 MED.
In order to calculate the photostability of the test compounds, the exposed slides were placed in a beaker and rinsed with 2×5 mL EtOH, 1×5 mL MeOH. The combined washings were then added to a 100 mL volumetric flask and made up to 100 mL total volume with methanol. The UV absorbance was then measured in a 10 mm cuvette. The percent stability is measured as the ratio of absorbance at λmax for the irradiated sample compared to the unirradiated sample.
The thin films are a good surrogate for testing the stability of a candidate in, for example, a sunscreen formulation as they use cosmetic emollients as solvent and are formed at cosmetically relevant concentrations.

SMILES strings stand for the structures. Values joined by “and” are separate entries in the source; they are usually repeats but may differ in a detail not shown here. Identical values can stand only once. Marks after values point to notes of the source that are not given here.

Regarding `CC1(C)CN(/C=C(/C(=O)c2ccccc2)c2ccccc2)c2ccccc21` [Compound 246], in data set [1], the λmax was found to be 357 nm; the λcrit is given as 385 nm; the “E (1%, 1 cm)” value amounted to 451; the ε was determined as 15933. For the same molecule, in data set [2], the Steepness is 43 nm and the “Breakthrough (1% T at 0.1%)” value came out at 405 nm. Besides, in data set [3], the Photostability is reported as 53%.
Turning to `COC(=O)c1ccc2c(c1)CCN2/C=C(/C(=O)c1ccc(C(C)(C)C)cc1)c1ccccc1` [Compound 287], in data set [1], the λmax stood at 373 nm; the λcrit was 389 nm; the “E (1%, 1 cm)” value is listed as 1007; the ε was found to be 44238. In data set [2], the Steepness was 35 nm and the “Breakthrough (1% T at 0.1%)” value amounted to 425 nm. Moreover, the Photostability in data set [3] is reported as 76%.
On to `CCN(/C=C(/C(=O)c1ccccc1)c1ccccc1)c1ccccc1` [Compound 245], for which, in data set [1], the λmax worked out at 333 nm; the λcrit is 374 nm; the “E (1%, 1 cm)” value is listed as 621; the ε is listed as 20292. Also, in data set [2], the Steepness came to 40 nm; the “Breakthrough (1% T at 0.1%)” value was 384 nm and 394 nm. Moreover, the Photostability in data set [3] turned out to be 55%.
In the case of `CCC(CC)(CC)OC(=O)/C(=C/N1CCc2cc(C(=O)OC)ccc21)c1ccccc1` [Compound 289], in data set [1], the λmax came out at 357 nm; the λcrit is 370 nm; the “E (1%, 1 cm)” value turned out to be 1405; the ε worked out at 59157. Moreover, in data set [2], the Steepness was 18 nm and the “Breakthrough (1% T at 0.1%)” value is given as 381 nm. For the same molecule, the Photostability in data set [3] is 78%.
Consider `COc1ccccc1C(=O)/C(=C/N(c1ccccc1)c1ccccc1)c1ccccc1` [Compound 285], for which, in data set [1], the λmax stood at 345 nm; the λcrit is reported as 378 nm; the “E (1%, 1 cm)” value worked out at 666; the ε is reported as 27034. Besides, in data set [2], the Steepness turned out to be 34 nm and the “Breakthrough (1% T at 0.1%)” value is 398 nm. For the same molecule, the Photostability in data set [3] came out at 76%.
On to `CCCCN(/C=C(/C(=O)C(F)(F)F)c1ccccc1)c1ccccc1` [Compound 234], for which, in data set [1], the λmax was determined as 330 nm; the λcrit turned out to be 365 nm; the “E (1%, 1 cm)” value amounted to 704; the ε was found to be 24440. Also, in data set [2], the Steepness is listed as 31 nm and the “Breakthrough (1% T at 0.1%)” value was determined as 381 nm. The Photostability in data set [3] was determined as 87%.
For `CN(C)/C=C(/C(=O)c1ccccc1)c1ccccc1` [Compound 240], in data set [1], the λmax is recorded as 313 nm; the λcrit was found to be 361 nm; the “E (1%, 1 cm)” value turned out to be 776; the ε is 19475. Moreover, in data set [2], the Steepness is 40 nm and the “Breakthrough (1% T at 0.1%)” value amounted to 379 nm. Moreover, in data set [3], the Photostability came to 10%.
For the molecule `CCN(/C=C(\C(=O)C(=O)N(C)C)c1ccccc1)c1ccccc1` [Compound 259], in data set [1], the λmax is 326 nm; the λcrit is listed as 365 nm; the “E (1%, 1 cm)” value was 724; the ε is 23336. For the same molecule, in data set [2], the Steepness came out at 34 nm and the “Breakthrough (1% T at 0.1%)” value is 378 nm. For the same molecule, the Photostability in data set [3] turned out to be 66%.
Consider `CCN(CC)C(=O)C(=O)/C(=C/N1CCc2cc(C(=O)OC)ccc21)c1ccccc1` [Compound 290], for which, in data set [1], the λmax is reported as 370 nm; the λcrit came out at 389 nm; the “E (1%, 1 cm)” value was 1260; the ε was 51191. In addition, in data set [2], the Steepness was found to be 22 nm and the “Breakthrough (1% T at 0.1%)” value is 412 nm. The Photostability in data set [3] turned out to be 53%.
As for `O=C(C(=O)N1CCc2ccccc21)/C(=C/N1CCc2ccccc21)c1ccccc1` [Compound 277], in data set [1], the λmax was 365 nm; the λcrit is given as 388 nm; the “E (1%, 1 cm)” value is on record as 872; the ε was 34350. Further, in data set [2], the Steepness worked out at 26 nm and the “Breakthrough (1% T at 0.1%)” value was 414 nm. Besides, in data set [3], the Photostability was 95%.
Take `Cc1ccccc1C(=O)/C(=C/N(c1ccccc1)c1ccccc1)c1ccccc1` [Compound 250]: in data set [1], the λmax is reported as 341 nm; the λcrit turned out to be 373 nm; the “E (1%, 1 cm)” value is reported as 738; the ε is given as 28714. In addition, in data set [2], the Steepness was determined as 37 nm and the “Breakthrough (1% T at 0.1%)” value stood at 389 nm. In addition, the Photostability in data set [3] stood at 60%.
As for `CCN(/C=C(/C(=O)c1c(C)cc(C)cc1C)c1ccccc1)c1ccccc1` [Compound 255], in data set [1], the λmax amounted to 323 nm; the λcrit is 351 nm; the “E (1%, 1 cm)” value is 798; the ε was 29450. Moreover, in data set [2], the Steepness stood at 34 nm and the “Breakthrough (1% T at 0.1%)” value was 364 nm. Also, in data set [3], the Photostability was 83^a %.
As for `COC(=O)c1ccc2c(c1)CCN2/C=C(/C(=O)C(=O)OC(C)(C)C)c1ccccc1` [Compound 269], in data set [1], the λmax is 374 nm; the λcrit amounted to 391 nm; the “E (1%, 1 cm)” value amounted to 1033; the ε was found to be 42074. For the same molecule, in data set [2], the Steepness worked out at 26 nm and the “Breakthrough (1% T at 0.1%)” value is recorded as 419 nm. Further, in data set [3], the Photostability was 94% and 94^a % and 98% and 91%.
`CN(C)C(=O)C(=O)/C(=C/N(c1ccccc1)c1ccccc1)c1ccccc1` [Compound 257]: in data set [1], the λmax worked out at 346 nm; the λcrit was 378 nm; the “E (1%, 1 cm)” value is 382; the ε is given as 14163. For the same molecule, in data set [2], the Steepness is 32 nm and the “Breakthrough (1% T at 0.1%)” value was 394 nm. In data set [3], the Photostability came out at 85%.
For `COC(=O)c1ccc2c(c1)CCN2C=C(C(=O)C(C)(C)C)c1ccc(C(C)(C)C)cc1` [Compound 296], in data set [1], the λmax was determined as 368 nm; the λcrit turned out to be 384 nm; the “E (1%, 1 cm)” value is on record as 1213; the ε amounted to 50838. Besides, in data set [2], the Steepness was 16 nm and the “Breakthrough (1% T at 0.1%)” value is recorded as 401 nm. Also, in data set [3], the Photostability is recorded as 73%.
Consider `COC(=O)c1ccc2c(c1)CCN2/C=C(/C(=O)C(=O)OC(C)(C)C(=O)OC)c1ccccc1` [Compound 279], for which, in data set [1], the λmax turned out to be 368 nm; the λcrit is reported as 386 nm; the “E (1%, 1 cm)” value is 1304; the ε was found to be 58842. Moreover, in data set [2], the Steepness is on record as 32 nm and the “Breakthrough (1% T at 0.1%)” value amounted to 412 nm. Further, in data set [3], the Photostability was 32%.
With `CCN(/C=C(/C(=O)c1ccccc1OC)c1ccccc1)c1ccccc1` [Compound 276], in data set [1], the λmax turned out to be 327 nm; the λcrit amounted to 366 nm; the “E (1%, 1 cm)” value came out at 711; the ε was determined as 25385. For the same molecule, in data set [2], the Steepness was determined as 40 nm and the “Breakthrough (1% T at 0.1%)” value is listed as 379 nm. The Photostability in data set [3] is 56%.
For `O=C(/C(=C/N(c1ccccc1)c1ccccc1)c1ccccc1)c1ccccc1` [Compound 244], in data set [1], the λmax was 352 nm; the λcrit was 383 nm; the “E (1%, 1 cm)” value is given as 536; the ε was found to be 20114. Besides, in data set [2], the Steepness is 43 nm and the “Breakthrough (1% T at 0.1%)” value was determined as 407 nm. In data set [3], the Photostability came to 58%.
Consider `CCOC(=O)C(=O)/C(=C/N(c1ccccc1)c1ccccc1)c1ccccc1` [Compound 237], for which, in data set [1], the λmax came out at 348 nm; the λcrit amounted to 380 nm; the “E (1%, 1 cm)” value is 775; the ε came out at 28737. For the same molecule, in data set [2], the Steepness was found to be 39 nm and the “Breakthrough (1% T at 0.1%)” value is 400 nm. For the same molecule, the Photostability in data set [3] came out at 83%.
Consider `CCCCC(CC)COC(=O)c1ccc2c(c1)CCN2/C=C(/C(=O)C(C)(C)C)c1ccc(C#N)cc1` (stereo not drawn) [Compound 310], for which, in data set [1], the λmax was determined as 368 nm; the λcrit was determined as 385 nm; the “E (1%, 1 cm)” value was 1039; the ε is 50502. Besides, in data set [2], the Steepness is recorded as 22 nm and the “Breakthrough (1% T at 0.1%)” value was determined as 402 nm. Also, in data set [3], the Photostability is 78% and 81%.
As to `CCCCC(CC)COC(=O)c1ccc2c(c1)CCN2C=C(C(=O)C(C)(C)C)c1ccccc1` (stereo not drawn) [Compound 300], in data set [1], the λmax was found to be 367 nm; the λcrit is on record as 384 nm; the “E (1%, 1 cm)” value is 1189; the ε is 54826. For the same molecule, in data set [2], the Steepness was found to be 16 nm and the “Breakthrough (1% T at 0.1%)” value stood at 400 nm. Also, the Photostability in data set [3] is 81% and 83%.
